Read-outs that look alike come from different tables or passages of the source.
How the values were obtained:
[1] = Pharmacokinetics in moderate renal impairment vs matched controls
Text: (§1) Data are GMRs and 90% CIs. References used are the matched healthy subjects for renal and hepatic impairment studies, and extensive or ultra-extensive CYP2D6 metabolizers respectively.

[2] = Pharmacokinetics in moderate hepatic impairment vs matched healthy subjects; settings: patients having moderate hepatic impairment (Group 2)
Text: as §1

[3] = Solubility of the powder in water
[4] = Pharmacokinetics of the subject combination (steady state); settings: for changes in AUC and Cmax with dose (dose proportionality): steady state, co-administered with bupropion; for AUC0-12 relative to that of bupropion / Cmax relative to peak level of bupropion: metabolite; for apparent elimination half-life: metabolites of bupropion
[5] = Pharmacokinetics in CYP2D6 poor metabolizers vs extensive metabolizers
Text: Approximately 7% to 10% of Caucasians and 3% to 8% of African Americans lack the capacity to metabolize CYP2D6 substrates and are classified as poor metabolizers.
as §1

[6] = Effect of food on pharmacokinetics of the subject combination; settings: subject combination administered with food
[7] = Effect of concomitant 20 mg paroxetine on dextromethorphan exposure (Example 6); settings: tablet of Example 4 twice daily, vs without paroxetine
[8] = Co-administration of paroxetine and the subject combination in healthy volunteers (Example 3); settings: 29 healthy volunteers; paroxetine co-administered with the subject combination
[9] = system: patients with treatment-resistant depression or MDD; settings: cited from earlier work
[10] = human, in vivo
plasma protein = assay: Plasma protein binding; settings: metabolite
[11] = after administration of the subject combination
[12] = 7 subjects with moderate (GFR 30-60 mL/min) renal impairment vs 6 matched controls
[13] = patients having moderate renal impairment

Compound: CC(NC(C)(C)C)C(=O)c1cccc(Cl)c1.Cl (racemic) [bupropion, (±)-1-(3-chlorophenyl)-2-[(1,1-dimethylethyl)amino]-1-propanone hydrochloride]
- increase in AUC0-12 ([1]; human, in vivo): 1.80 fold
- increase in Cmax ([1]; human, in vivo): 1.87 fold
- increase of exposure ([1]; human, in vivo): approximately 2 fold
- reduction of clearance ([1]; human, in vivo): 50%
- AUC0-12 and Cmax compared with healthy patients [2]: not significantly different
- solubility in water [3]: highly soluble
- median Tmax [4, 11]: about 2 hours

Compound: Br.COc1ccc2c(c1)[C@]13CCCC[C@@H]1[C@H](C2)N(C)CC3 [dextromethorphan, morphinan, 3-methoxy-17-methyl-, (9α, 13α, 14α), hydrobromide monohydrate]
- increase of exposure [1, 12]: approximately 2 fold
- reduction of clearance [1, 12]: 50%
- increase in AUC0-12 [1, 13]: 2.21 fold
- increase in Cmax [1, 13]: 2.10 fold
- AUC0-12 and Cmax compared with healthy patients [2]: not significantly different
- increase in AUC0-12 compared to extensive metabolizers ([5]; 3 poor metabolizers): ~3.4 fold
- increase in Cmax compared to extensive metabolizers ([5]; 3 poor metabolizers): ~3 fold
- steady state plasma concentrations compared to non-poor metabolizers ([5]; 12 poor metabolizers treated in efficacy trials): generally higher
- solubility in water [3]: sparingly soluble
- increase of mean elimination half-life compared to dextromethorphan given without bupropion ([4]; following 8 days of administration of the subject combination in extensive metabolizers): approximately 3 fold
- changes in AUC and Cmax with dose (dose proportionality) ([4]; varying doses of bupropion (75 to 150 mg)): less than dose-proportional
- changes in AUC and Cmax with dose (dose proportionality) ([4]; varying doses of dextromethorphan (30 to 60 mg)): greater than dose-proportional
- accumulation ratio at steady state based on AUC0-12 ([4]; subject combination): about 32
- accumulation ratio at steady state based on Cmax ([4]; subject combination): about 20
- change of Cmax with food [6]: unchanged
- decrease of AUC0-12 with food [6]: 14%
- increase of AUC0-12 with concomitant paroxetine [7]: 2.69 fold
- increase of Cmax with concomitant paroxetine [7]: 2.38 fold
- increase of overall exposure by paroxetine [8]: 2.5 fold

Compound: CC(NC(C)(C)C)C(O)c1cccc(Cl)c1 (centres unmarked) [erythrohydroxybupropion]
- AUC0-12 relative to that of bupropion [4, 11]: about 1.2 times
- Cmax relative to peak level of bupropion [4, 11]: approximately equal to
- apparent elimination half-life [4]: ~44 h

Compound: CN[C@]1(c2ccccc2Cl)CCCCC1=O [esketamine, Esketamine]
- Incidence of Sedation (MOAA/S score <5) ([9]; 56 mg + oral AD, patients <65 years with TRD, fixed-dose study): 50%
- Incidence of Sedation (MOAA/S score <5) ([9]; 84 mg + oral AD, patients <65 years with TRD, fixed-dose study): 61%
- Incidence of Sedation (MOAA/S score <5) ([9]; 28 to 84 mg + oral AD, patients ≥65 years with TRD, flexible-dose study): 49%
- incidence of sedation (MOAA/S score <5) compared to placebo plus oral antidepressant ([9]; adults with MDD with acute suicidal ideation or behavior): higher incidence of sedation

Compound: C[C@H]1NC(C)(C)CO[C@]1(O)c1cccc(Cl)c1 [hydroxybupropion]
- AUC0-12 relative to that of bupropion [4, 11]: about 19 times
- Cmax relative to peak level of bupropion [4, 11]: approximately 14 times
- apparent elimination half-life [4]: approximately 35 hours

Compound: Fc1ccc([C@@H]2CCNC[C@H]2COc2ccc3c(c2)OCO3)cc1 [paroxetine]
- increase of overall exposure when co-administered with the subject combination [10]: 1.2 fold

Compound: C[C@H](NC(C)(C)C)[C@@H](O)c1cccc(Cl)c1 [threohydroxybupropion]
- extent of protein binding compared with bupropion (plasma protein): about half that seen with bupropion
- AUC0-12 relative to that of bupropion [4, 11]: about 7 times
- Cmax relative to peak level of bupropion [4, 11]: about 5 times
- apparent elimination half-life [4]: ~33 h
